Data taken from the NIST ThermoML archive (doi:10.1021/je6005778).

Settings: Liquid; for speed of sound: Pulse-echo method

CCC(O)CO (stereo unspecified) [1,2-butanediol]
Settings	mass density [kg/m3]	speed of sound [m/s]
288.15 K, 101.33 kPa	1005.78	–
292.87 K, 45600 kPa	–	1634.3
292.87 K, 60790 kPa	–	1681.5
292.87 K, 75990 kPa	–	1726
292.87 K, 91190 kPa	–	1768
292.87 K, 101320 kPa	–	1794.7
292.88 K, 15200 kPa	–	1528.2
292.88 K, 30400 kPa	–	1583.2
292.93 K, 101.33 kPa	–	1466.5
293.15 K, 101.33 kPa	1002.12	–
298.1 K, 101.33 kPa	–	1451.3
298.15 K, 101.33 kPa	998.408	–
298.15 K, 15200 kPa	–	1513.5
298.15 K, 30400 kPa	–	1569.2
298.15 K, 45600 kPa	–	1621.1
298.15 K, 60790 kPa	–	1668.8
298.15 K, 75990 kPa	–	1713.8
298.15 K, 91190 kPa	–	1755.9
298.15 K, 101320 kPa	–	1783
303.13 K, 15200 kPa	–	1500
303.13 K, 30400 kPa	–	1556.4
303.13 K, 45600 kPa	–	1608.8
303.13 K, 60790 kPa	–	1657.1
303.13 K, 75990 kPa	–	1702.2
303.13 K, 91190 kPa	–	1745
303.13 K, 101320 kPa	–	1772.3
303.15 K, 101.33 kPa	994.659	–
303.18 K, 101.33 kPa	–	1436.5
308.12 K, 60790 kPa	–	1645.5
308.12 K, 91190 kPa	–	1734.2
308.13 K, 15200 kPa	–	1486.6
308.13 K, 30400 kPa	–	1543.5
308.13 K, 45600 kPa	–	1596.5
308.13 K, 75990 kPa	–	1691
308.13 K, 101320 kPa	–	1761.7
308.15 K, 101.33 kPa	990.872	–
308.17 K, 101.33 kPa	–	1421.8
313.15 K, 101.33 kPa	987.048	–
313.3 K, 30400 kPa	–	1530.3
313.3 K, 45600 kPa	–	1583.7
313.3 K, 60790 kPa	–	1633.4
313.3 K, 75990 kPa	–	1679.3
313.3 K, 91190 kPa	–	1723
313.3 K, 101320 kPa	–	1750.4
313.31 K, 15200 kPa	–	1472.8
313.35 K, 101.33 kPa	–	1406.7
318.15 K, 101.33 kPa	983.185	1392.6
323.15 K, 101.33 kPa	979.285	–
328.15 K, 101.33 kPa	975.354	–
333.15 K, 101.33 kPa	971.386	–
338.16 K, 101.33 kPa	967.378	–
343.15 K, 101.33 kPa	963.333	–
348.16 K, 101.33 kPa	959.256	–
353.15 K, 101.33 kPa	955.143	–
358.15 K, 101.33 kPa	950.989	–
363.15 K, 101.33 kPa	946.804	–

CC(O)CCO (stereo unspecified) [1,3-butanediol]
Settings	mass density [kg/m3]	speed of sound [m/s]
288.15 K, 101.33 kPa	1006.75	–
292.86 K, 45590 kPa	–	1686.5
292.86 K, 75990 kPa	–	1770.1
292.86 K, 91180 kPa	–	1808.7
292.86 K, 101320 kPa	–	1833.6
292.87 K, 15200 kPa	–	1592.1
292.87 K, 30390 kPa	–	1641
292.87 K, 60790 kPa	–	1729.5
292.92 K, 101.33 kPa	–	1537.7
293.15 K, 101.33 kPa	1003.52	–
298.15 K, 101.33 kPa	1000.23	–
298.15 K, 15200 kPa	–	1578.4
298.15 K, 30390 kPa	–	1628
298.15 K, 45590 kPa	–	1673.8
298.15 K, 60790 kPa	–	1717.4
298.15 K, 75990 kPa	–	1758.3
298.15 K, 91180 kPa	–	1797.3
298.15 K, 101320 kPa	–	1822.1
298.2 K, 101.33 kPa	–	1523.3
303.13 K, 15200 kPa	–	1565.3
303.13 K, 30390 kPa	–	1615.9
303.13 K, 45590 kPa	–	1662.2
303.13 K, 60790 kPa	–	1706
303.13 K, 75990 kPa	–	1747.3
303.13 K, 91180 kPa	–	1786.7
303.13 K, 101320 kPa	–	1811.6
303.15 K, 101.33 kPa	996.895	–
303.17 K, 101.33 kPa	–	1509.7
308.11 K, 101320 kPa	–	1801.7
308.12 K, 45590 kPa	–	1650.6
308.12 K, 75990 kPa	–	1736.7
308.13 K, 15200 kPa	–	1552.4
308.13 K, 30390 kPa	–	1603.5
308.13 K, 60790 kPa	–	1694.6
308.13 K, 91180 kPa	–	1776.3
308.15 K, 101.33 kPa	993.524	–
308.16 K, 101.33 kPa	–	1496
313.11 K, 15200 kPa	–	1539.6
313.11 K, 30390 kPa	–	1591.2
313.11 K, 45590 kPa	–	1639.1
313.11 K, 60790 kPa	–	1683.6
313.11 K, 75990 kPa	–	1725.9
313.11 K, 91180 kPa	–	1765.9
313.11 K, 101320 kPa	–	1791.5
313.14 K, 101.33 kPa	–	1482.3
313.15 K, 101.33 kPa	990.116	–
318.16 K, 101.33 kPa	986.665	–
318.29 K, 15200 kPa	–	1526.2
318.29 K, 30390 kPa	–	1578.4
318.29 K, 45590 kPa	–	1627
318.29 K, 60790 kPa	–	1672
318.29 K, 75990 kPa	–	1714.8
318.29 K, 91180 kPa	–	1755.2
318.29 K, 101320 kPa	–	1781.1
318.32 K, 101.33 kPa	–	1467.9
323.15 K, 101.33 kPa	983.181	–
328.16 K, 101.33 kPa	979.654	–
333.16 K, 101.33 kPa	976.087	–
338.15 K, 101.33 kPa	972.476	–
343.15 K, 101.33 kPa	968.825	–
348.16 K, 101.33 kPa	965.14	–
353.15 K, 101.33 kPa	961.411	–
358.15 K, 101.33 kPa	957.637	–
363.15 K, 101.33 kPa	953.825	–
